In patent publication US20190255091A1, “RNAi AGENTS FOR [sequence] B VIRUS INFECTION” (priority 2016, published 2019):

Legend:
Hepatitis B Virus (HBV) [1] = assay: Serum HBsAg levels in pHBV model mice (ELISA); format: in vivo; parameters: key to Average HBsAg levels normalized to pre-treatment (day −1) and PBS control / Average HBsAg levels normalized to pre-treatment and PBS control: fraction of pre-treatment level, relative to PBS control mean; conditions: for Average HBsAg levels normalized to pre-treatment (day −1) and PBS control: single s.c. injection day 1, Example 7; for Average HBsAg normalized to pre-treatment and PBS control: single s.c. injection on day 1; for Average HBsAg levels normalized to pre-treatment and PBS control (Group A used as control): 3.0 mg/kg, s.c. injection on day 1 and day 22, Example 10
Description: (§1) Six to eight-week-old female NOD.CB17-Prkdscid/NcrCrl (NOD-SCID) mice were transiently transfected in vivo with MC-HBV1.3 by hydrodynamic tail vein injection (Yang P L et al. “Hydrodynamic injection of viral DNA: a mouse model of acute hepatitis B virus infection,” PNAS USA 2002 Vol. 99: p. 13825-13830), administered 30 to 45 days prior to administration of an HBV RNAi agent or control. MC-HBV1.3 is a plasmid-derived minicircle that contains the same terminally redundant human hepatitis B virus sequence HBV1.3 as in plasmid pHBV1.3 and in the HBV1.3.32 transgenic mice (GenBank accession #V01460) (Guidotti L G et al., “High-level hepatitis B virus replication in transgenic mice,” J Virol 1995 Vol. 69, p 6158-6169.). 5 or 10 μg MC-HBV1.3 in Ringer's Solution in a total volume of 10% of the animal's body weight was injected into mice via tail vein to create pHBV model of chronic HBV infection. The solution was injected through a 27-gauge needle in 5-7 seconds as previously described (Zhang G et al., “High levels of foreign gene expression in hepatocytes after tail vein injection of naked plasmid DNA.” Human Gene Therapy 1999 Vol. 10, p 1735-1737.). At pre-dose (either day 1 pre-dose, day −1, or day −2), Hepatitis B surface antigen (HBsAg) HBsAg expression levels in serum were measured by ELISA and the mice were grouped according to average HBsAg expression levels.
(§2) HBV expression levels were normalized to pre-administration expression levels and to control mice injected with phosphate buffered saline (“PBS”).
Mice were anesthetized with 2-3% isoflurane and blood samples were collected from the submandibular area into serum separation tubes (Sarstedt AG & Co., Nümbrecht, Germany). Blood was allowed to coagulate at ambient temperature for 20 min. The tubes were centrifuged at 8,000×g for 3 min to separate the serum and stored at 4° C.
Serum was collected and diluted 10 to 8000-fold in PBS containing 5% nonfat dry milk. […] HBsAg levels were determined with a GS HBsAg EIA 3.0 kit (Bio-Rad Laboratories, Inc., Redmond, Wash.) as described by the manufacturer. Recombinant HBsAg protein, ayw subtype, also diluted in nonfat milk in PBS, was used as a primary standard (Aldevron).
HBsAg expression for each animal was normalized to the control group of mice injected with PBS in order to account for the non-treatment related decline in expression of MC-HBV1.3. First, the HBsAg level for each animal at a time point was divided by the pre-treatment level of expression in that animal in order to determine the ratio of expression “normalized to pre-treatment”. Expression at a specific time point was then normalized to the control group by dividing the “normalized to pre-treatment” ratio for an individual animal by the average “normalized to pre-treatment” ratio of all mice in the normal PBS control group.

Hepatitis B Virus (HBV) [2] = assay: Serum HBeAg levels in pHBV model mice (ELISA); format: in vivo; conditions: single s.c. injection day 1, Example 7; for Average HBeAg levels normalized to pre-treatment and PBS control: pooled serum
Description: as §1, §2
HBeAg analysis was performed with the HBeAg enzyme linked immunosorbent assay (ELISA) as described by the manufacturer (DiaSorin) using serum diluted 4- to 20-fold in 5% nonfat dry milk. The amount of antigen was determined in the linear range of the assay and quantitated against HBeAg protein standards (Fitzgerald Industries International, catalog #30-AH18, Acton, Mass.).
HBeAg expression for each animal was normalized to the control group of mice injected with PBS in order to account for the non-treatment related decline in expression of MC-HBV1.3. For evaluation of HBeAg in serum, HBeAg is analyzed from pooled group or subgroup serum samples. First, the HBeAg level for each pooled group or subgroup was divided by the pre-treatment level of expression in the same group or subgroup in order to determine the ratio of expression “normalized to pre-treatment”. Expression at a specific time point was then normalized to the control group by dividing the “normalized to pre-treatment” ratio for a group or subgroup by the average “normalized to pre-treatment” ratio of all samples from the normal PBS control group.

“AD04776: HBV RNAi agent duplex AM05850-AS/AM06150-SS (antisense UACCAAUUUAUGCCUACAGCC; sense GGCUGUAGGCAUAAAUUGGUA; chemistry not fully specified)” was tested, and the “Average HBsAg levels normalized to pre-treatment (day −1) and PBS control” value (Hepatitis B Virus (HBV) [1]; Day 8, 1.0 mg/kg) was 0.279 ± 0.057, the “Average HBsAg levels normalized to pre-treatment (day −1) and PBS control” value (Hepatitis B Virus (HBV) [1]; Day 8, 2.0 mg/kg) was 0.224 ± 0.018 and the “Average HBsAg normalized to pre-treatment and PBS control” value (from here on “Average HBsAg normalized”) (Hepatitis B Virus (HBV) [1]; Day 8, 2.0 mg/kg, Example 15) was 0.339 ± 0.076. For the same substance, the “Average HBsAg levels normalized to pre-treatment and PBS control (Group A used as control)” value (Hepatitis B Virus (HBV) [1]; Day 8) was 0.197 ± 0.081, the “Average HBsAg levels normalized to pre-treatment (day −1) and PBS control” value (Hepatitis B Virus (HBV) [1]; Day 8, 4.0 mg/kg) was 0.117 ± 0.069 and the “Average HBsAg levels normalized to pre-treatment (day −1) and PBS control” value (Hepatitis B Virus (HBV) [1]; Day 15, 1.0 mg/kg) was 0.245 ± 0.032. The “Average HBsAg levels normalized to pre-treatment (day −1) and PBS control” value (Hepatitis B Virus (HBV) [1]; Day 15, 2.0 mg/kg) was 0.161 ± 0.009, the “Average HBsAg normalized” value (Hepatitis B Virus (HBV) [1]; Day 15, 2.0 mg/kg, Example 15) was 0.414 ± 0.126 and the “Average HBsAg levels normalized to pre-treatment and PBS control (Group A used as control)” value (Hepatitis B Virus (HBV) [1]; Day 15) was 0.308 ± 0.138. The “Average HBsAg levels normalized to pre-treatment (day −1) and PBS control” value (Hepatitis B Virus (HBV) [1]; Day 15, 4.0 mg/kg) was 0.085 ± 0.039, the “Average HBsAg levels normalized to pre-treatment (day −1) and PBS control” value (Hepatitis B Virus (HBV) [1]; Day 22, 1.0 mg/kg) was 0.374 ± 0.121 and the “Average HBsAg levels normalized to pre-treatment (day −1) and PBS control” value (Hepatitis B Virus (HBV) [1]; Day 22, 2.0 mg/kg) was 0.310 ± 0.016. For the same substance, the “Average HBsAg normalized” value (Hepatitis B Virus (HBV) [1]; Day 22, 2.0 mg/kg, Example 15) was 0.385 ± 0.067, the “Average HBsAg levels normalized to pre-treatment and PBS control (Group A used as control)” value (Hepatitis B Virus (HBV) [1]; Day 22) was 0.476 ± 0.156 and the “Average HBsAg levels normalized to pre-treatment (day −1) and PBS control” value (Hepatitis B Virus (HBV) [1]; Day 22, 4.0 mg/kg) was 0.148 ± 0.045. For the same substance, the “Average HBsAg levels normalized to pre-treatment (day −1) and PBS control” value (Hepatitis B Virus (HBV) [1]; Day 29, 1.0 mg/kg) was 0.304, the “Average HBsAg levels normalized to pre-treatment (day −1) and PBS control” value (Hepatitis B Virus (HBV) [1]; Day 29, 2.0 mg/kg) was 0.482 and the “Average HBsAg normalized” value (Hepatitis B Virus (HBV) [1]; Day 29, 2.0 mg/kg, Example 15) was 0.450 ± 0.075. For the same substance, the “Average HBsAg levels normalized to pre-treatment and PBS control (Group A used as control)” value (Hepatitis B Virus (HBV) [1]; Day 29) was 0.246 ± 0.081, the “Average HBsAg levels normalized to pre-treatment (day −1) and PBS control” value (Hepatitis B Virus (HBV) [1]; Day 29, 4.0 mg/kg) was 0.198 and the “Average HBsAg normalized” value (Hepatitis B Virus (HBV) [1]; Day 36, 2.0 mg/kg, Example 15) was 0.617 ± 0.116. The “Average HBsAg levels normalized to pre-treatment and PBS control (Group A used as control)” value (Hepatitis B Virus (HBV) [1]; Day 36) was 0.244 ± 0.097, the “Average HBsAg normalized” value (Hepatitis B Virus (HBV) [1]; Day 43, 2.0 mg/kg, Example 15) was 0.643 ± 0.154 and the “Average HBsAg levels normalized to pre-treatment and PBS control (Group A used as control)” value (Hepatitis B Virus (HBV) [1]; Day 43) was 0.179 ± 0.061. For the same substance, the “Average HBsAg normalized” value (Hepatitis B Virus (HBV) [1]; Day 50, 2.0 mg/kg, Example 15) was 0.665 ± 0.199, the “knockdown of HBsAg compared to PBS control” value (Hepatitis B Virus (HBV) [1]; Example 15, administered alone or in combination with AD04872, across each of the time points measured) was “significant knockdown of HBsAg” and the “Average HBeAg fold knockdown normalized to pre-treatment and PBS control” value (shortened to “Average HBeAg fold knockdown normalized”) (Hepatitis B Virus (HBV) [2]; Day 8, 1.0 mg/kg) was 2.6 Fold KD. For the same substance, the “Average HBeAg levels normalized to pre-treatment and PBS control” value (shortened to “Average HBeAg levels normalized”) (Hepatitis B Virus (HBV) [2]; Day 8, 1.0 mg/kg) was 0.381, the “Average HBeAg fold knockdown normalized” value (Hepatitis B Virus (HBV) [2]; Day 8, 2.0 mg/kg) was 3.6 Fold KD and the “Average HBeAg levels normalized” value (Hepatitis B Virus (HBV) [2]; Day 8, 2.0 mg/kg) was 0.275. The “Average HBeAg fold knockdown normalized” value (Hepatitis B Virus (HBV) [2]; Day 8, 4.0 mg/kg) was 5.2 Fold KD, the “Average HBeAg levels normalized” value (Hepatitis B Virus (HBV) [2]; Day 8, 4.0 mg/kg) was 0.193 and the “Average HBeAg fold knockdown normalized” value (Hepatitis B Virus (HBV) [2]; Day 15, 1.0 mg/kg) was 2.7 Fold KD. For the same substance, the “Average HBeAg levels normalized” value (Hepatitis B Virus (HBV) [2]; Day 15, 1.0 mg/kg) was 0.368, the “Average HBeAg fold knockdown normalized” value (Hepatitis B Virus (HBV) [2]; Day 15, 2.0 mg/kg) was 3.9 Fold KD and the “Average HBeAg levels normalized” value (Hepatitis B Virus (HBV) [2]; Day 15, 2.0 mg/kg) was 0.255. The “Average HBeAg fold knockdown normalized” value (Hepatitis B Virus (HBV) [2]; Day 15, 4.0 mg/kg) was 4.7 Fold KD, the “Average HBeAg levels normalized” value (Hepatitis B Virus (HBV) [2]; Day 15, 4.0 mg/kg) was 0.213 and the “Average HBeAg fold knockdown normalized” value (Hepatitis B Virus (HBV) [2]; Day 22, 1.0 mg/kg) was 2.8 Fold KD. The “Average HBeAg levels normalized” value (Hepatitis B Virus (HBV) [2]; Day 22, 1.0 mg/kg) was 0.355, the “Average HBeAg fold knockdown normalized” value (Hepatitis B Virus (HBV) [2]; Day 22, 2.0 mg/kg) was 2.7 Fold KD and the “Average HBeAg levels normalized” value (Hepatitis B Virus (HBV) [2]; Day 22, 2.0 mg/kg) was 0.370. The “Average HBeAg fold knockdown normalized” value (Hepatitis B Virus (HBV) [2]; Day 22, 4.0 mg/kg) was 3.8 Fold KD, the “Average HBeAg levels normalized” value (Hepatitis B Virus (HBV) [2]; Day 22, 4.0 mg/kg) was 0.260 and the “Average HBeAg fold knockdown normalized” value (Hepatitis B Virus (HBV) [2]; Day 29, 1.0 mg/kg) was 1.8 Fold KD. For the same substance, the “Average HBeAg levels normalized” value (Hepatitis B Virus (HBV) [2]; Day 29, 1.0 mg/kg) was 0.564, the “Average HBeAg fold knockdown normalized” value (Hepatitis B Virus (HBV) [2]; Day 29, 2.0 mg/kg) was 2.0 Fold KD and the “Average HBeAg levels normalized” value (Hepatitis B Virus (HBV) [2]; Day 29, 2.0 mg/kg) was 0.495. For the same substance, the “Average HBeAg fold knockdown normalized” value (Hepatitis B Virus (HBV) [2]; Day 29, 4.0 mg/kg) was 3.3 Fold KD, the “Average HBeAg levels normalized” value (Hepatitis B Virus (HBV) [2]; Day 29, 4.0 mg/kg) was 0.307 and the “Average HBeAg fold knockdown normalized” value (Hepatitis B Virus (HBV) [2]; Day 36, 1.0 mg/kg) was 2.1 Fold KD. For the same substance, the “Average HBeAg levels normalized” value (Hepatitis B Virus (HBV) [2]; Day 36, 1.0 mg/kg) was 0.483, the “Average HBeAg fold knockdown normalized” value (Hepatitis B Virus (HBV) [2]; Day 36, 2.0 mg/kg) was 2.2 Fold KD and the “Average HBeAg levels normalized” value (Hepatitis B Virus (HBV) [2]; Day 36, 2.0 mg/kg) was 0.449. For the same substance, the “Average HBeAg fold knockdown normalized” value (Hepatitis B Virus (HBV) [2]; Day 36, 4.0 mg/kg) was 2.2 Fold KD and the “Average HBeAg levels normalized” value (Hepatitis B Virus (HBV) [2]; Day 36, 4.0 mg/kg) was 0.464.
